US5708033A, “Amide derivatives and their therapeutic use” (Glaxo Wellcome Inc., priority 1994, dated 1998)
Where two headings read alike, the source gives them in different places.

Columns and labels:
Assay type in all cases: in vivo, rat (Lewis male)
[1] = test system: rat hind limb (trypsin-induced hyperalgesia); test: modification of the trypsin-induced rat hind limb hyperalgesic assay (mild analgesia); details: po, 1 h, p.o. gavage to fasted rats 0.5 hours prior to subplantar 250 μg trypsin, evaluated one hour later, 4 seconds maximum latency, read-out: p.o. ED50 (mild analgesia, 50% inhibition of latency response)
Experimental: The rats used in these studies were Lewis male, weighing 160-180 g. and assigned to groups consisting of 5-6 animals. Test compounds were given to fasted rats by oral gavage 0.5 hours prior to the subplantar injection of 250 μg trypsin in one hind limb. One hour later the rats were evaluated for hyperalgesia using a F-shaped mechanical force clamp on the injected hind limb metatarsal area. Latency (seconds) to the algesic response (vocalisation or flight) was determined, with 4 seconds being the maximum latency allowed. ED50 values were estimated by linear regression analysis and represent the dose at which a given drug extended the latency response to produce 50% inhibition using the formula:
(4 sec.-Control Latency)-(4 sec.-Test Latency)/4 sec.--Control

[2] = test system: phalanges of one hind limb (algesic response); test: phalanges algesic assay (strong analgesia); details: p.o. gavage to fasted rats, mechanical force clamp one hour later, 3 seconds maximum; for ED50: Rattus norvegicus, po, 1 h, read-out: p.o. ED50 (strong analgesia, 50% inhibition of latency response)
Experimental: The rats used in these studies were Lewis male weighing 160-180 g and assigned to groups of 5-6 animals. The phalanges algesic assay is an algesic test (no hyperalgesia). Test compounds were given to fasted rats by oral gavage. One hour later an F-shaped mechanical force clamp was applied to the phalanges of one hind limb which initiated an algesic response (vocalisation or flight). Latency (seconds) to the algesic response was determined with 3 seconds maximum allowed time. ED50 values were estimated by linear regression analysis and represent the dose at which a given compound extended the latency response to produce 50% inhibition using the formula:
(3 sec.-Control Latency)-(3 sec.-Test Latency)/3 sec.-Control

[3] = test system: rat pleura (carrageenan-induced cell accumulation and edema formation); test: modification of the standard carrageenan pleurisy assay (anti-inflammatory activity); details: po, p.o. gavage to fasted rats 0.5 hr prior to intrapleural 50 μg carrageenan, exudate after 4 hr
Experimental: The rats used in these experiments were Lewis males, weighing 160-180 g, assigned to groups consisting of 5 animals. Test compounds were given to fasted rats by oral gavage 0.5 hr prior to intrapleural injection of 50 μg carrageenan. After 4 hr, the pleural exudate was collected and the edema volume and cell number were determined. ED50 values were estimated by linear regression analysis, and represent the doses at which a given drug produced 50% inhibition of carrageenan-induced cell accumulation and edema formation within the rat pleura.

[4] = read-out: p.o. ED50, Cells (50% inhibition of carrageenan-induced cell accumulation)
[5] = read-out: p.o. ED50, Edema (50% inhibition of edema formation)

Row | Compound | ED50 [1] [mg/kg] | ED50 [2] [mg/kg] | ED50 [3, 4] [mg/kg] | ED50 [3, 5] [mg/kg] | p.o. ED50 (strong analgesia, 50% inhibition of latency response) [2]
1 | NC(=O)/C=C1\CCc2c(F)cc(Cl)cc21 [Example 6, (E)-2-(6-Chloro-4-Fluoro-1-indanylidene)acetamide] | > 10 | > 45 | > 25 | > 25 | –
2 | NC(=O)/C=C1\CCc2c(Cl)cc(Cl)cc21 [Example 3, (E)-2-(4,6-Dichloro-1-indanylidene)acetamide] | 4 | > 45 | 25 | 20 | –
3 | NC(=O)/C=C1\CCc2c(Br)cc(F)cc21 [Example 7, (E)-2-(4-Bromo-6-Fluoro-1-indanylidene)acetamide] | – | > 45 | > 20 | > 20 | –
4 | CNC(=O)/C=C1\CCc2c(Cl)cc(F)cc21 [Example 1, (E)-2-(4-Chloro-6-fluoro-1-indanylidene)-N-Methylacetamide] | 2 | 60 | 8 | 5 | –
5 | NC(=O)/C=C1\CCc2c(Cl)cc(F)cc21 [Example 2, (E)-2-(4-Chloro-6-fluoro-1-indanylidene)acetamide] | 4 | 30 | 11 | 11 | –
6 | Cc1cc(Cl)c2c(c1)/C(=C/C(N)=O)CC2 [Example 8, (E)-2-(4-Chloro-6-methyl-1-indanylidene)acetamide] | – | – | > 25 | > 25 | Inactive at 45
